# How the values were obtained:
# [1] = tested on: Myzus persicae resistant to organophosphorous agents and carbamates; test: Test against Myzus persicae resistant to organophosphorous agents and carbamates (spray on eggplant seedlings); assay type: in vivo; details: 100 ppm concentration of the effective component; 7 days after spraying; green house of 28° C.
# Method: About 30 bred Myzus persicae resistant to organophosphorous agents and carbamates were inoculated per 1 seedling of eggplant planted in a vinyl pot of 6 cm diameter. One day after the inoculation, a sufficient amount of a diluted aqueous solution of a prescribed concentration of an active compound prepared as mentioned above, was sprayed by using a spray gun. After spraying it was placed in a green house of 28° C. and the rate of death was calculated 7 days after the spraying. Test was repeated twice.
# [2] = tested on: larva of Spodoptera litura; test: Test against larva of Spodoptera litura (leaf dip, sweet potato leaves); assay type: in vivo; details: 20 ppm concentration of the active component; third instar larvae; counted after 7 days; 25° C.
# How it was run: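 Sweet potato leaves were dipped in emulsified compound diluted with water, air-dried, and given to 10 third-instar larvae per dish at 25° C, with fresh leaves added on days 2 and 4. Mortality was counted after 7 days and averaged over 2 dishes.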
# [3] = tested on: larva of Cnaphalocrocis medinalis Guenee; test: Test against larva of Cnaphalocrocis medinalis Guenee (sprayed paddy rice foliage); assay type: in vivo; details: 20 ppm concentration of the active component; second instar larvae; counted after 7 days; 25° C.
# How it was run: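 Potted rice (Tamanishiki) sprayed with aqueous dilutions of compound at the prescribed concentration; air-dried leaf pieces placed in dishes with five 2nd-instar larvae at 25° C, fresh treated foliage added at days 2 and 4. Mortality counted at day 7, averaged over 2 dishes.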
melting point [°C],SMILES,"controlling effect, rate of death [1] [%]","controlling effect, rate of death [2] [%]","controlling effect, rate of death [3] [%]"
,Cc1cc(Cn2nc(C(F)(F)F)nc2C(F)F)ccc1NC(=O)c1cccc(I)c1C(=O)NC(C)CS(C)(=O)=O (centres unmarked) [compound 243],100,,
,Cc1cc(Cn2nc(C(F)(F)F)nc2C(F)(F)F)ccc1NC(=O)c1cccc(Br)c1C(=O)NC(C)CS(C)(=O)=O (centres unmarked) [compound 181],100,100,100
,Cc1cc(C(C)n2nc(C(F)(F)F)nc2C(F)(F)F)ccc1NC(=O)c1cccc(I)c1C(=O)N[C@@H](C)C[S+](C)[O-] (some centres unmarked) [compound 572],100,100,100
,Cc1cc(Cn2cc(C(F)(F)C(F)(F)F)c(C(F)(F)C(F)(F)C(F)(F)F)n2)ccc1NC(=O)c1cccc(I)c1C(=O)N[C@@H](C)C[S+](C)[O-] (some centres unmarked) [compound 920],100,100,100
,Cc1cc(C(C)n2nc(C(F)(F)C(F)(F)F)nc2C(F)(F)F)ccc1NC(=O)c1cccc(Cl)c1C(=O)N[C@@H](C)C[S+](C)[O-] (some centres unmarked) [compound 579],100,100,100
,Cc1cc(Cn2nc(C(F)(F)F)nc2C(F)(F)F)ccc1NC(=O)c1cccc(I)c1C(=O)NC(C)(C)CS(C)(=O)=O [compound 213],100,100,100
,CCS(=O)(=O)CC(C)NC(=O)c1c(Cl)cccc1C(=O)Nc1ccc(Cn2nc(C(F)(F)F)nc2C(F)(F)F)cc1C (centres unmarked) [compound 148],100,100,100
,CC[S+]([O-])CC(C)NC(=O)c1c(Cl)cccc1C(=O)Nc1ccc(Cn2nc(C(F)(F)F)nc2C(F)(F)F)cc1C (centres unmarked) [compound 147],100,100,100
,CSCC(C)NC(=O)c1c(Cl)cccc1C(=O)Nc1ccc(Cn2nc(C(F)(F)F)nc2C(F)(F)F)cc1C (centres unmarked) [compound 140],100,100,100
,CCSCC(C)NC(=O)c1c(I)cccc1C(=O)Nc1ccc(Cn2nc(C(F)(F)F)nc2C(F)(F)F)cc1C (centres unmarked) [compound 220],100,100,100
,Cc1cc(C(C)n2nc(C(F)(F)F)nc2C(F)(F)F)ccc1NC(=O)c1cccc(Cl)c1C(=O)N[C@@H](C)CS(C)(=O)=O (some centres unmarked) [compound 570],100,100,100
,Cc1cc(Cn2nc(C(F)(F)F)nc2C(F)(F)F)ccc1NC(=O)c1cccc(Br)c1C(=O)NC(C)C[S+](C)[O-] (centres unmarked) [compound 180],100,100,100
,CSCC(C)(C)NC(=O)c1c(Br)cccc1C(=O)Nc1ccc(Cn2nc(C(F)(F)F)nc2C(F)(F)F)cc1C [compound 174],100,100,100
,CSCC(C)NC(=O)c1c(I)cccc1C(=O)Nc1ccc(Cn2nc(C(F)(F)C(F)(F)F)nc2C(F)(F)F)cc1C (centres unmarked) [compound 226],100,100,100
,Cc1cc(C(C)n2nc(C(F)(F)F)nc2C(F)(F)F)ccc1NC(=O)c1cccc(Cl)c1C(=O)N[C@@H](C)C[S+](C)[O-] (some centres unmarked) [compound 569],100,,
,CCSCC(C)NC(=O)c1c(Cl)cccc1C(=O)Nc1ccc(Cn2nc(C(F)(F)F)nc2C(F)(F)F)cc1C (centres unmarked) [compound 146],100,100,100
,Cc1cc(Cn2nc(C(F)(F)F)nc2C(F)(F)F)ccc1NC(=O)c1cccc(Cl)c1C(=O)NC(C)CS(C)(=O)=O (centres unmarked) [compound 144],100,100,100
,Cc1cc(Cn2nc(C(F)C(F)(F)F)nc2C(F)(F)F)ccc1NC(=O)c1cccc(Cl)c1C(=O)N[C@@H](C)C[S+](C)[O-] (some centres unmarked) [compound 797],100,,
,CSCC(C)NC(=O)c1c(I)cccc1C(=O)Nc1ccc(Cn2nc(C(F)(F)F)nc2C(F)F)cc1C (centres unmarked) [compound 239],100,,
,CSCC(C)NC(=O)c1c(I)cccc1C(=O)Nc1ccc(Cn2nc(C(F)(F)F)nc2C(F)(F)F)cc1C (centres unmarked) [compound 214],100,100,100
,CSCC(C)(C)NC(=O)c1c(I)cccc1C(=O)Nc1ccc(Cn2nc(C(F)(F)F)nc2C(F)(F)F)cc1C [compound 211],100,100,100
,Cc1cc(Cn2nc(C(F)(F)F)nc2C(F)(F)F)ccc1NC(=O)c1cccc(Br)c1C(=O)NC(C)(C)CS(C)(=O)=O [compound 176],100,100,100
,Cc1cc(Cn2nc(C(F)(F)F)nc2C(F)(F)F)ccc1NC(=O)c1cccc(I)c1C(=O)NC(C)CS(C)(=O)=O (centres unmarked) [compound 218],100,100,100
,CSCC(C)NC(=O)c1c(I)cccc1C(=O)Nc1ccc(Cn2nc(C(F)(F)F)nc2C(F)(F)F)cc1C (centres unmarked) [compound 215],100,100,100
79 to 86,"CSCC(C)(C)NC(=O)c1c(I)cccc1C(=O)Nc1ccc(C(C)n2ccc(C(F)(F)F)n2)cc1C (centres unmarked) [compound 558, N^2-(1,1-dimethyl-2-methylsulfanyl-ethyl)-3-iodo-N^1-{2-methyl-4-[1-(3-trifluoromethyl-1H-pyrazol-1-yl)-ethyl]-phenyl}-phthalamide]",,,
,CCS(=O)(=O)CC(C)NC(=O)c1c(I)cccc1C(=O)Nc1ccc(Cn2nc(C(F)(F)F)nc2C(F)(F)F)cc1C (centres unmarked) [compound 222],100,100,100
,CSCC(C)NC(=O)c1c(Cl)cccc1C(=O)Nc1ccc(Cn2nc(C(F)(F)F)nc2C(F)(F)F)cc1C (centres unmarked) [compound 141],100,100,100

# From patent US7674807B2, “Heterocycle-substituted n-phenyl-phthalamide derivatives, related compounds and their use as insecticides” (Bayer CropScience AG, priority 2004, dated 2010)
